In patent US20200246297A1, “LIQUID PHARMACEUTICAL FORMULATIONS OF TETRAIODOTHYRONINE” (priority 2015, published 2020):
Like-named read-outs stand apart in the source and are kept apart here.

Columns and labels:
[1] = Scanning electron microscopy (SEM) of the filter membrane surface; format: physicochemical; settings: T4 powder in water, comparative example
Procedure: These findings indicate that despite the 1:100 dilution process undergone by the original 150 μg/mL mixture, the formation of microaggregates remains stable, even after 8 h, and removes a considerable amount of the active ingredient from the pharmacological action.

[2] = Saturation of T4 solutions in PEG; format: physicochemical; settings: T4 solvated in PEG
Excerpt: Due to their structure, said nanoaggregates are easily absorbed at gastrointestinal level, and are therefore completely and certainly bioavailable.

[3] = Filtration through membranes with cut-off ≤100 KDa: T4 in the permeate; format: physicochemical
[4] = cited from earlier work
[5] = Protective effect of PEG: residual T4 assay by HPLC after 10 h stirring under nitrogen or oxygen; format: physicochemical; settings: 600 rpm, 35° C.
Procedure: 5 mL of each solution is left under stirring for 10 h at 600 rpm and 35° C. in a nitrogen atmosphere, and 5 mL is left under the same conditions but in an oxygen atmosphere.

[6] = Quantity of T4 microaggregates formed in water: HPLC T4 concentration before and after 0.2 μm microfiltration; format: physicochemical
Procedure: […] 50 mL of each sample taken is microfiltered through a Millipore GSWP02500 membrane with a porosity of 0.2 μm.
(§1) 50 mL of each sample taken is microfiltered through a Millipore GSWP02500 membrane with a porosity of […].
as §1
50 mL of each sample taken is microfiltered through a Millipore GSWP02500 membrane with a porosity of 0.2 μm.

[7] = cited from earlier work; remark: listed apart in the source
[8] = T4 150 μg/mL in 50% w/w aqueous PEG 400, 2000, 4000 or 8000 (all types), diluted 100 times in water pH 1.5, T0
[9] = T4 150 μg/mL in 50% w/w aqueous PEG 400, 2000, 4000 or 8000 (all types), diluted 100 times in water pH 6.5, T0
[10] = T4 150 μg/mL in PEG 200, 300, 400 or 600 (all types), diluted 100 times in water pH 6.5, T0

average length on the longer axis of elongated crystalline structures on the filter [1]: exceeding 3.03±1.40 μm | concentration of T4 solution in PEG usable without the system becoming saturated [2]: up to 0.1 g/mL | residual T4 assay value ([5]; T4 150 μg/mL in glycerol or ethanol, oxygen atmosphere): 30 % of the original assay value | T4 concentration after microfiltration ([6]; T4 150 μg/mL in 30% w/w aqueous PEG 400, 2000, 4000 or 8000 (all types), diluted 100 times in water pH 6.5, T0): 75 % of the value before microfiltration | T4 concentration after microfiltration [6, 8]: 100 % of the theoretical value | T4 concentration before microfiltration [6, 8]: 100 % of the theoretical value | T4 concentration after microfiltration [6, 9]: 100 % of the theoretical value | T4 concentration before microfiltration [6, 9]: 100 % of the theoretical value | T4 concentration after microfiltration [6, 10]: 100 % of the theoretical value | T4 concentration before microfiltration [6, 10]: 100 % of the theoretical value | T4 concentration after microfiltration compared with before ([6]; T4 150 μg/mL in PEG 8000/glycerol or PEG/ethanol 50/50 w/w (both systems), diluted 100 times in water pH 6.5, T0): identical to that before microfiltration | behaviour at later times (microfiltration) ([6]; T4 in 30% w/w aqueous PEG, diluted 100 times in water pH 6.5, T1h, T4h and T8h): behaviour similar to that at T0 | T4 concentration in the solution before microfiltration ([6]; T4 powder 150 μg/mL in water pH 6.5, diluted 1:100 in water pH 6.5, T0 (30 sec)): 97.3 % of the theoretical value | T4 concentration after microfiltration ([6]; T4 powder 150 μg/mL in water pH 6.5, diluted 1:100 in water pH 6.5, T0 (30 sec), 0.2 μm filter): 18.5 % of the theoretical value | T4 concentration in the solution before microfiltration ([6]; T4 powder in water pH 6.5, diluted 1:100, T1h): 97.9% | T4 concentration after microfiltration ([6]; T4 powder in water pH 6.5, diluted 1:100, T1h, 0.2 μm filter): 27.1% | T4 concentration in the solution before microfiltration ([6]; T4 powder in water pH 6.5, diluted 1:100, T4h): 98.2% | T4 concentration after microfiltration ([6]; T4 powder in water pH 6.5, diluted 1:100, T4h, 0.2 μm filter): 27.5% | T4 concentration in the solution before microfiltration ([6]; T4 powder in water pH 6.5, diluted 1:100, T8h): 97.5% | T4 concentration after microfiltration ([6]; T4 powder in water pH 6.5, diluted 1:100, T8h, 0.2 μm filter): 23.7%
Substance: (2S)-2-amino-3-[4-(4-hydroxy-3,5-diiodo-oxyphenyloxy)-3,5-diiodophenyl]propanoic acid [T4]
T4 in the permeate of ≤100 KDa membrane ([3]; T4 in 50% PEG in water, diluted 100 times in water pH 6.5): quantitative absence of T4 in the permeate | T4 in the permeate of ≤100 KDa membrane ([3]; T4 in 50% w/w aqueous PEG, diluted 100 times in water pH 1.5): quantitative absence of T4 in the permeate | T4 in the permeate of ≤100 KDa membrane ([3]; T4 in PEG 200, 300, 400 or 600, diluted 100 times in water pH 6.5): quantitative absence of T4 in the permeate | T4 in the permeate of ≤100 KDa membrane ([3]; T4 in PEG 8000/glycerol or PEG/ethanol 50/50 w/w, diluted 100 times in water pH 6.5): quantitative absence of T4 in the permeate | T4 in the permeate of ≤100 KDa membrane ([3]; T4 in glycerin, ethanol or glycerin/ethanol 80/20 w/w, diluted 100 times in water pH 6.5): quantitative absence of T4 in the permeate | intrinsic dissolution rate (IDR) ([4]; entire physiological pH range): about 0.0002 mg/min/cm^2 | Biopharmaceutics Classification System class ([4]; high solubility and intestinal permeability): Class I | T4 assay value of the solutions ([5]; T4 150 μg/mL in ethanol, glycerol, PEG 200, 300, 400 or 600 (all cases), nitrogen atmosphere): remains the same as the theoretical value | half-life of the medicament ([7]; euthyroidism): about 7 days | half-life of the medicament ([7]; hypothyroidism and pregnancy): 9 to 10 days | share absorbed in the duodenum ([7]; oral, small intestine): 21% | share absorbed in the ileum ([7]; oral, small intestine): 34% | share absorbed in the jejunum ([7]; oral, small intestine): 45% | time absorption takes ([7]; oral): about three
